In series [1] the test system is MRC5 cells. The series can be described thus: cells. As to conditions: Homo sapiens, MRC5, read-out: EC50 MRC5 (SD, n). It counts as cell-based, human. On the procedure:
(§1) The 96-well HTS assays against blood stream form T. brucei[38] and MRC5 cells were carried out as reported previously.[39] The manual assays performed on the AT1 double knock out T. brucei and wild type T. brucei were conducted as described by Jones et al.[39]

For series [2], the system named is blood stream form T. brucei. Briefly: 96-well HTS assay against blood stream form T. brucei. The series is classed as cell-based, Trypanosoma brucei. As to conditions: for EC50: Trypanosoma brucei. The protocol: as §1
A short description of another series: in vitro. The series is classed as cell-based, human. As to conditions: human. On the procedure: as §1
The subject of a further series is wild type T. brucei. The series can be described thus: 96-well manual assay on wild type T. brucei. It counts as cell-based. As to conditions: Trypanosoma brucei, read-out: T. brucei EC50 (SD). The protocol: In order to determine if analogues 35, 38, 44 and 46 are substrates for the P2 transporter they were assayed against a line of T. brucei lacking the gene which codes for the P2 transporter (Table 2).[33] If the analogues are transported they would be expected to show greater potency against wild type T. brucei than against the P2 knock out line. Compounds 8 and 19,[25] which contain the triazole and indolyl quinol pharmacophore respectively, but lack a P2 motif, served as negative controls.
as §1

The next series concerns T. brucei AT1 KO. Briefly: 96-well manual assay on AT1 double knock out T. brucei (P2 transporter knock out). As to conditions: for EC50: Trypanosoma brucei, read-out: T. brucei AT1 KO EC50 (SD); for Cell line selectivity: EC50 (AT1 KO)/EC50 (WT): manual assay. It counts as cell-based, Trypanosoma brucei. On the procedure: In order to determine if analogues 35, 38, 44 and 46 are substrates for the P2 transporter they were assayed against a line of T. brucei lacking the gene which codes for the P2 transporter (Table 2).[33] […] Compounds 8 and 19,[25] which contain the triazole and indolyl quinol pharmacophore respectively, but lack a P2 motif, served as negative controls.
as §1

Series [3] deals with blood stream form T. brucei. Further details: method as in PMID 21212280. As to conditions: cited from earlier work; for EC50: Table 1, data taken from Konig et al.
Series [4] deals with MRC5 cells. On the set-up: method as in PMID 21212280. The settings on record: Table 1; data taken from Konig et al.; cited from earlier work.
Setting [5] is: Table 1, arithmetic mean of independent determinations, read-out: EC50 T. brucei (SD, n).
Setting [6] is: Table 2, 96-well HTS assay, blood stream form T. b. brucei, read-out: T. brucei EC50 (SD, n).
Where [7] appears, read: Table 2, 96-well manual assay, wild type, weighted mean of three independent experiments.

Like-named read-outs stand apart in the source and are kept apart here.

As to `CN1CCN(C(=O)CCc2ccc(S(=O)(=O)n3c(C4(O)C=CC(=O)C=C4)cc4ccccc43)cc2)CC1` [Compound 22], the values for the concentration giving a half-maximal response (EC50) (in the series on MRC5 cells [1]; in series [2] (setting [5])) were 52 nM and 18 nM, respectively.

For the compound `O=C1C=CC(O)(c2cc3ccccc3n2S(=O)(=O)c2ccc(CCCO)cc2)C=C1` [Compound 20], the 50% effective concentration (EC50) (in general, the midpoint of the concentration-response curve) in the series with MRC5 cells [1] was determined as 51 nM; in series [2] (setting [5]) it was 24 nM.

With `O=C1C=CC(O)(c2cc3ccccc3n2S(=O)(=O)c2ccc(CCC(=O)O)cc2)C=C1` [Compound 42, 3-(4-((2-(1-Hydroxy-4-oxocyclohexa-2,5-dien-1-yl)-1H-indol-1-yl)sulfonyl)phenyl)propanoic acid], the half-maximal effective concentration (EC50) is 3300 nM in the series “in vitro” and 740 nM in series [2] (setting [6]).

`O=C1C=CC(O)(C#Cc2ccc(CC(=O)Nc3ccccc3)cc2)C=C1` [Compound 3, 2-(4-((1-Hydroxy-4-oxocyclohexa-2,5-dien-1-yl)ethynyl)phenyl)-N-phenylacetamide]: the results for the EC50 (in the series with MRC5 cells [1]; in series [2] (setting [5])) were 670 nM and 2200 nM, respectively.

For the compound `O=C1C=CC(O)(c2cc3ccccc3n2S(=O)(=O)c2ccc(CCCN3CCOCC3)cc2)C=C1` [Compound 23], the EC50 in the series on MRC5 cells [1] worked out at 79 nM; in series [2] (setting [5]), 26 nM.

Turning to `CC(=O)NCCc1ccc(S(=O)(=O)n2c(C3(O)C=CC(=O)C=C3)cc3ccccc32)cc1` [Compound 18], the values for the concentration for a half-maximal effect (EC50) (in the series with MRC5 cells [1]; in series [2] (setting [5])) were 36 nM and 12 nM, respectively. Also, the “activity against T. brucei in words” value in series [2] is given as “low nanomolar range”.

For `Nc1nc(N)nc(-n2cc(C3(O)C=CC(=O)C=C3)nn2)n1` [Compound 38, 4-(1-(4,6-Diamino-1,3,5-triazin-2-yl)-1H-1,2,3-triazol-4-yl)-4-hydroxycyclohexa-2,5-dienone], the EC50 in the series “in vitro” is > 50000 nM; with wild type T. brucei (setting [7]) it was 3800 nM; with T. brucei AT1 KO, 3800 nM; in series [2] (setting [6]) it was 6200 nM. The “Cell line selectivity: EC50 (AT1 KO)/EC50 (WT)” value (shortened to “Cell line selectivity: EC50”) in the series with T. brucei AT1 KO is recorded as 1.0.

Regarding `N=C(N)c1ccc(/N=N/Nc2ccc(C(=N)N)cc2)cc1` [Berenil, reference compound], the EC50 with wild type T. brucei (setting [7]) was 31 nM. Besides, in the series on T. brucei AT1 KO, the EC50 came to 330 nM and the “Cell line selectivity: EC50” value is listed as 11.

For `CC(=O)OC[C@H]1O[C@@H](n2cc(C3(O)C=CC(=O)C=C3)nn2)[C@H](OC(C)=O)[C@@H](OC(C)=O)[C@H]1OC(C)=O` [Compound 11], the EC50 with MRC5 cells [1] was > 50000 nM; in series [2] (setting [5]), 10000 nM.

Turning to `COc1ccc(Cn2cc(C3(O)C=CC(=O)C=C3)nn2)cc1` [Compound 9], the EC50 amounted to 450 nM in the series with MRC5 cells [1] and 160 nM in series [2] (setting [5]).

On to `C#CC1(O)C=CC(=O)C=C1` [Compound 1, 4-Ethynyl-4-hydroxycyclohexa-2,5-dienone], for which the EC50 in the series on MRC5 cells [1] was found to be 2100 nM; in series [2] (setting [5]), 2000 nM.

Turning to `COC(=O)CCc1ccc(S(=O)(=O)n2c(C3(O)C=CC(=O)C=C3)cc3ccccc32)cc1` [Compound 19, Methyl 3-(4-((2-(1-hydroxy-4-oxocyclohexa-2,5-dien-1-yl)-1H-indol-1-yl)sulfonyl)phenyl) propanoate], the EC50 is 280 nM in the series on MRC5 cells [1]; 280 nM in the series “in vitro”; 60 nM in the series with wild type T. brucei (setting [7]); 80 nM in the series on T. brucei AT1 KO; 160 nM in series [2] (setting [5]); 160 nM in series [2] (setting [6]). Moreover, the “Cell line selectivity: EC50” value in the series with T. brucei AT1 KO amounted to 1.3.

Regarding `CS(=O)(=O)c1ccc(S(=O)(=O)n2c(C3(O)C=CC(=O)C=C3)cc3ccccc32)cc1` [Compound 25], the EC50 with MRC5 cells [1] is 39 nM; in series [2] (setting [5]), 24 nM.

For `O=C1C=CC(O)(c2cn(-c3ccc4ncsc4c3)nn2)C=C1` [Compound 10], the 50% effective concentration (EC50) in the series on MRC5 cells [1] turned out to be 69 nM; in series [2] (setting [5]), 27 nM. Further, the “activity against T. brucei in words” value in series [2] is “low nanomolar range”.

`O=C1C=CC(O)(c2cc3ccccc3n2S(=O)(=O)c2ccc(CCC(=O)N3CCOCC3)cc2)C=C1` [Compound 21]: the concentration giving a half-maximal response (EC50) worked out at 67 nM in the series with MRC5 cells [1] and 36 nM in series [2] (setting [5]).

On to `O=C1C=CC(O)(c2cc3cnccc3n2S(=O)(=O)c2ccccc2)C=C1` [Compound 15], for which the EC50 with MRC5 cells [1] is 41 nM; in series [2] (setting [5]), 22 nM. Also, the “activity against T. brucei in words” value in series [2] is on record as “low nanomolar range”.

Consider `COc1ccc(-n2cc(C3(O)C=CC(=O)C=C3)nn2)cc1` [Compound 8], for which the concentration for a half-maximal effect (EC50) in the series with wild type T. brucei was determined as 95 nM. Besides, in the series on T. brucei AT1 KO, the concentration for a half-maximal effect (EC50) is 74 nM and the “Cell line selectivity: EC50” value is 0.78.

Regarding `Nc1nc(N)nc(NCCCNC(=O)CCc2ccc(S(=O)(=O)n3c(C4(O)C=CC(=O)C=C4)cc4ccccc43)cc2)n1` [Compound 46, N-(3-((4,6-Diamino-1,3,5-triazin-2-yl)amino)propyl)-3-(4-((2-(1-hydroxy-4-oxocyclohexa-2,5-dien-1-yl)-1H-indol-1-yl)sulfonyl)phenyl)propanamide], the EC50 in the series “in vitro” was found to be 18000 nM; with wild type T. brucei (setting [7]), 1700 nM; in the series with T. brucei AT1 KO it was 1800 nM; in series [2] (setting [6]), 3200 nM. In addition, the “Cell line selectivity: EC50” value in the series on T. brucei AT1 KO is given as 1.1.

Take `Oc1ccc(-c2nc3ccccc3s2)cc1` [Compound 7]: in series [3], the EC50 is > 50000 nM and the “activity against T. brucei in words” value was “inactive”. Moreover, the EC50 in the series with MRC5 cells [4] is > 50000 nM.

Take `CN1CCN(CCCc2ccc(S(=O)(=O)n3c(C4(O)C=CC(=O)C=C4)cc4ccccc43)cc2)CC1` [Compound 24]: the EC50 with MRC5 cells [1] was found to be 50 nM; in series [2] (setting [5]), 16 nM.

Take `N=C(N)c1ccc(OCCCCCOc2ccc(C(=N)N)cc2)cc1` [pentamidine, reference compound]: in series [2] (reference drugs assayed under identical conditions, read-out: EC50 against T. brucei), the EC50 came to 8 nM.

`Nc1nc(N)nc(NCCCOC(=O)CCc2ccc(S(=O)(=O)n3c(C4(O)C=CC(=O)C=C4)cc4ccccc43)cc2)n1` [Compound 44, 3-((4,6-Diamino-1,3,5-triazin-2-yl)amino)propyl 3-(4-((2-(1-hydroxy-4-oxocyclohexa-2,5-dien-1-yl)-1H-indol-1-yl)sulfonyl)phenyl)propanoate]: the EC50 in the series “in vitro” worked out at 950 nM; in the series with wild type T. brucei (setting [7]), 250 nM; with T. brucei AT1 KO, 260 nM; in series [2] (setting [6]), 350 nM. For the same compound, the “Cell line selectivity: EC50” value in the series on T. brucei AT1 KO is recorded as 1.0.

As to `O=C1C=CC(O)(c2cc3ccc(F)cc3n2S(=O)(=O)c2ccccc2)C=C1` [Compound 13], in series [3], the EC50 was 100 nM.

Take `O=C1C=CC(O)(c2nc3ccccc3s2)C(Cl)=C1` (centres unmarked) [Compound 6]: the EC50 with MRC5 cells [1] was 55 nM; in series [2] (setting [5]), 46 nM. In addition, the “activity against T. brucei in words” value in series [2] is reported as “low nanomolar range”.

Turning to `Nc1nc(N)nc(Nc2ccc([As]3SCC(CO)S3)cc2)n1` (centres unmarked) [melarsoprol, reference compound], the EC50 in series [2] (read-out: EC50 against T. brucei) was determined as 33 nM.

Consider `Cc1ccc(S(=O)(=O)n2c(C3(O)C=CC(=O)C=C3)cc3ccncc32)cc1` [Compound 16], for which the results for the 50% effective concentration (EC50) (with MRC5 cells [1]; in series [2] (setting [5])) were 44 nM and 26 nM, respectively. For the same compound, the “activity against T. brucei in words” value in series [2] is on record as “low nanomolar range”.

Turning to `N=C(N)c1ccc(-n2cc(C3(O)C=CC(=O)C=C3)nn2)cc1` [Compound 35, 4-(4-(1-Hydroxy-4-oxocyclohexa-2,5-dienyl)-1H-1,2,3-triazol-1-yl)benzimidamide], the concentration giving a half-maximal response (EC50) was > 50000 nM in the series “in vitro”, 5000 nM in the series with wild type T. brucei (setting [7]), 6000 nM with T. brucei AT1 KO and 11000 nM in series [2] (setting [6]). Moreover, in the series on T. brucei AT1 KO, the “Cell line selectivity: EC50” value is 1.2.

As for `CCOC(=O)Nc1ccc(S(=O)(=O)n2c(C3(O)C=CC(=O)C=C3)cc3ccccc32)cc1` [Compound 17], the figures for the EC50 (in the series with MRC5 cells [1]; in series [2] (setting [5])) were 86 nM and 50 nM, respectively.

Consider `O=C1C=CC(O)(c2cn(CCC(=O)Nc3ccccc3)nn2)C=C1` [Compound 12, 3-(4-(1-Hydroxy-4-oxocyclohexa-2,5-dien-1-yl)-1H-1,2,3-triazol-1-yl)-N-phenylpropanamide], for which the EC50 is 18000 nM in the series with MRC5 cells [1] and 2700 nM in series [2] (setting [5]).

The record behind these values is PMC3281193, “Quinol derivatives as potential trypanocidal agents” (Bioorganic & Medicinal Chemistry, 2012).
